Data taken from patent US6683184B2, “Piperazine derivatives and process for the preparation thereof” (Samjin Pharmaceutical Co., Ltd., priority 1999, dated 2004).
Converted amounts (≈) assume the structure as drawn. Like-named read-outs stand apart in the source and are kept apart here.

Tests used:
[1] = test system: A549 (human non-small lung cell); assay: In vitro antitumor effect against human tumor cell lines, SRB assay, A549; format: cell-based; conditions: A549 cells, 48 hours; for IC50: Homo sapiens, read-out: ED50 A 549
Procedure, shortened: (§1)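 SRB read-out at 520 nm after TCA fixation, 0.4% SRB stain and 10 mM Tris elution. Cells received compound for 48 h following 24 h attachment; time-zero plates taken at dosing, with untreated wells as control, to calculate growth inhibition or net killing.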

[2] = test system: SKOV-3 (human ovarian); assay: In vitro antitumor effect against human tumor cell lines, SRB assay, SKOV-3; format: cell-based; conditions: SK-OV-3 cells, 48 hours; for IC50: Homo sapiens, read-out: ED50 SK-OV-3
Procedure, shortened: as §1

[3] = test system: SKMEL-2 (human melanoma); assay: In vitro antitumor effect against human tumor cell lines, SRB assay, SKMEL-2; format: cell-based; conditions: SK-MEL-2 cells, 48 hours; for IC50: Homo sapiens, read-out: ED50 SK-MEL-2
Procedure, shortened: as §1

[4] = test system: XF 498 (human CNS); assay: In vitro antitumor effect against human tumor cell lines, SRB assay, XF 498; format: cell-based; conditions: 48 hours; for IC50: Homo sapiens, XF498, XF-498 cells, read-out: ED50 XF-498
Procedure, shortened: as §1

[5] = test system: HCT-15 (human colon); assay: In vitro antitumor effect against human tumor cell lines, SRB assay, HCT-15; format: cell-based; conditions: HCT 15 cells, 48 hours; for IC50: Homo sapiens, read-out: ED50 HCT 15
Procedure, shortened: as §1

[6] = test system: P388 (mouse lymphoid neoplasma cell); assay: In vitro antitumor effects against animal leukemia cells, dye exclusion assay; format: cell-based; conditions: 48 hours, trypan blue dye exclusion, read-out: P388 (IC50, concentration showing 50% cell growth inhibition compared with the control)
Experimental: In vitro antitumor effects against animal leukemia cells.
Tumor cell line: P388 (mouse lymphoid neoplasma cell)
B. Method: Dye Exclusion Assay.
1) Concentrations of P388 cells being cultured in RPMI 1640 media containing 10% FBS were regulated to 1×10^6 cells/ml.
2) Sample drugs of respective concentrations diluted in the ratio of log doses were added into each cell culture and cultured at 37° C., for 48 hours, in […] incubator, and then viable cell numbers were measured by dye exclusion test using trypan blue.

[7] = Acute toxicity test (LD50), Litchfield-Wilcoxon method; format: in vivo; conditions: mouse, in vivo, ICR mice, male, observed 14 days
[8] = test system: ICR mice; assay: as above; format: in vivo; conditions: male, i.v., observed 14 days

Compound | IC50 [1] [ng/mL] | IC50 [2] [ng/mL] | IC50 [3] [ng/mL] | IC50 [4] [ng/mL] | IC50 [5] [ng/mL] | IC50 [6] [ng/mL] | LD50 at 14 days ([7]; iv, i.v., read-out: LD50 i.v.) [mg/kg] | LD50 at 14 days ([7]; po, p.o., read-out: LD50 p.o.) [mg/kg] | LD50 i.v. [8] [mg/kg] | ED50 A 549 [1] [ng/mL] | ED50 SK-OV-3 [2] [ng/mL] | ED50 SK-MEL-2 [3] [ng/mL] | ED50 XF-498 ([4]; XF-498 cells) [ng/mL] | ED50 HCT 15 [5] [ng/mL]
COc1cc(OC)cc(N2CCN(C(=O)Nc3nc4ccccc4nc3OC)CC2)c1 [Example 38, 1-[(2-Methoxyquinoxalin-3-yl)aminocarbonyl]-4-(3,5-dimethoxyphenyl)piperazine] | 0.03 (≈ 0.0708 nM) | 0.09 (≈ 0.213 nM) | 0.04 (≈ 0.0945 nM) | 0.11 (≈ 0.26 nM) | 0.13 (≈ 0.307 nM) | 10 (≈ 23.6 nM) | 97 | 410 | – | – | – | – | – | –
COc1nc(C)c(C)cc1N=C(NO)N1CCN(c2cccc(Br)c2)CC1 [Example 104, N-Hydroxy-N′-(5,6-dimethyl-2-methoxypyridin-3-yl)-[4-(3-bromophenyl)piperazin-1-yl]carboxyimidamide] | – | – | – | – | – | – | – | – | 212 | – | – | – | – | –
COc1nc(C)c(C)nc1NC(=O)N1CCN(c2cc(C)cc(C)c2)CC1 [Example 7, 1-[(5,6-Dimethyl-2-methoxypyrazin-3-yl)aminocarbonyl]-4-(3,5-dimethylphenyl)piperazine] | 2.4 (≈ 6.5 nM) | 7.2 (≈ 19.5 nM) | 2.3 (≈ 6.23 nM) | 2.7 (≈ 7.31 nM) | 2.8 (≈ 7.58 nM) | 20 (≈ 54.1 nM) | 75 | – | – | – | – | – | – | –
COc1nc(C)c(C)cc1N=C(NO)N1CCN(c2cc(C)cc(C)c2)CC1 [Example 99, N-Hydroxy-N′-(5,6-dimethyl-2-methoxypyridin-3-yl)-[4-(3,5-dimethylphenyl)piperazin-1-yl]carboxyimidamide] | – | – | – | – | – | – | – | – | >200 | 12 (≈ 31.3 nM) | 8 (≈ 20.9 nM) | 6 (≈ 15.6 nM) | 10 (≈ 26.1 nM) | 3 (≈ 7.82 nM)
COc1nc(C)c(C)nc1NC(=S)N1CCN(c2cc(C)cc(C)c2)CC1 [Example 30, 1-[(5,6-Dimethyl-2-methoxypyrazin-3-yl)aminothiocarbonyl]-4-(3,5-dimethylphenyl)piperazine] | 0.6 (≈ 1.56 nM) | 0.7 (≈ 1.82 nM) | < 0.1 | 0.5 (≈ 1.3 nM) | 0.7 (≈ 1.82 nM) | 70 (≈ 182 nM) | – | – | – | – | – | – | – | –
